Test results reported in ChEMBL document CHEMBL1201862, “PubChem BioAssay data set” (2004).
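Following 48 hours of exposure in 96-well plates, responses at five concentrations were used to interpolate endpoints linearly. GI50: concentration for 50% inhibition of growth.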 Active and inactive are the calls of the source. Rule as the data show it: active = GI50 up to about 1.1 µM and inactive = higher.

Key:
Experiment in all cases: NCI-60 cell line screen, 48 h
SK-OV-3 = test system: SK-OV-3
MOLT-4 = test system: MOLT-4
IGROV-1 = test system: IGROV-1
HCT-15 = test system: HCT-15
M14 = test system: M14
OVCAR-8 = test system: OVCAR-8
U-251 = test system: U-251
NCI-H522 = test system: NCI-H522
TK-10 = test system: TK-10
CAKI-1 = test system: CAKI-1
NCI-H23 = test system: NCI-H23
HOP-62 = test system: HOP-62
HCT-116 = test system: HCT-116
RPMI-8226 = test system: RPMI-8226
UO-31 = test system: UO-31
HT-29 = test system: HT-29
SF-539 = test system: SF-539
HL-60 = test system: HL-60
LOX IMVI = test system: LOX IMVI

| SMILES | GI50 (SK-OV-3) | GI50 (MOLT-4) | GI50 (IGROV-1) | GI50 (HCT-15) [µM] | GI50 (M14) | GI50 (OVCAR-8) | GI50 (U-251) | GI50 (NCI-H522) | GI50 (TK-10) | GI50 (CAKI-1) | GI50 (NCI-H23) | GI50 (HOP-62) | GI50 (HCT-116) | GI50 (RPMI-8226) | GI50 (UO-31) | GI50 (HT-29) | GI50 (SF-539) | GI50 (HL-60) | GI50 (LOX IMVI) |
| --- | --- | --- | --- | --- | --- | --- | --- | --- | --- | --- | --- | --- | --- | --- | --- | --- | --- | --- | --- |
| CCOC(=O)CSC1NC(C(=O)OC)CC1OC (stereo unspecified) | > 100 µM (inactive) | > 100 µM (inactive) | > 100 µM (inactive) | > 100 | > 100 µM (inactive) | > 100 µM (inactive) | > 100 µM (inactive) | > 100 µM (inactive) | > 100 µM (inactive) | > 100 µM (inactive) | > 100 µM (inactive) | > 100 µM (inactive) | > 100 µM (inactive) | > 100 µM (inactive) | > 100 µM (inactive) | > 100 µM (inactive) | – | – | – |
| O=C1NC2C(CCO)CC=C[C@H]2c2cc3c(cc21)OCO3 (stereo partly specified) | > 100 µM (inactive) | > 100 µM (inactive) | > 100 µM (inactive) | > 100 | > 100 µM (inactive) | > 100 µM (inactive) | > 100 µM (inactive) | > 100 µM (inactive) | > 100 µM (inactive) | – | > 100 µM (inactive) | > 100 µM (inactive) | > 100 µM (inactive) | > 100 µM (inactive) | > 100 µM (inactive) | > 100 µM (inactive) | > 100 µM (inactive) | > 100 µM (inactive) | > 100 µM (inactive) |
| CCCC1C(=O)CCc2c(OC)ccc(OC)c21 (stereo unspecified) | > 100 µM (inactive) | 49.1 µM (inactive) | > 100 µM (inactive) | > 100 | > 100 µM (inactive) | 92.7 µM (inactive) | > 100 µM (inactive) | – | > 100 µM (inactive) | > 100 µM (inactive) | > 100 µM (inactive) | > 100 µM (inactive) | 51.9 µM (inactive) | 65.9 µM (inactive) | 17.1 µM (inactive) | > 100 µM (inactive) | > 100 µM (inactive) | 73.8 µM (inactive) | > 100 µM (inactive) |
| NC1=NCCC1(c1ccccc1)c1ccccn1 (stereo unspecified) | > 100 µM (inactive) | > 100 µM (inactive) | > 100 µM (inactive) | > 100 | > 100 µM (inactive) | > 100 µM (inactive) | > 100 µM (inactive) | > 100 µM (inactive) | > 100 µM (inactive) | > 100 µM (inactive) | > 100 µM (inactive) | > 100 µM (inactive) | > 100 µM (inactive) | > 100 µM (inactive) | – | > 100 µM (inactive) | > 100 µM (inactive) | > 100 µM (inactive) | – |
| NC1=NC2=C(CCCC2)C(c2cccs2)S1 (stereo unspecified) | > 100 µM (inactive) | 36.8 µM (inactive) | > 100 µM (inactive) | > 100 | > 100 µM (inactive) | > 100 µM (inactive) | > 100 µM (inactive) | 27.9 µM (inactive) | > 100 µM (inactive) | > 100 µM (inactive) | > 100 µM (inactive) | > 100 µM (inactive) | > 100 µM (inactive) | 61.7 µM (inactive) | 5.43 µM (inactive) | > 100 µM (inactive) | > 100 µM (inactive) | 8.73 µM (inactive) | – |
| Cc1cc(=O)n2c(cc3cccccc32)n1 | – | > 100 µM (inactive) | > 100 µM (inactive) | > 100 | > 100 µM (inactive) | > 100 µM (inactive) | > 100 µM (inactive) | > 100 µM (inactive) | > 100 µM (inactive) | > 100 µM (inactive) | > 100 µM (inactive) | > 100 µM (inactive) | – | > 100 µM (inactive) | > 100 µM (inactive) | > 100 µM (inactive) | > 100 µM (inactive) | > 100 µM (inactive) | > 100 µM (inactive) |
| CC1=C(c2cc(C(=O)Nc3ccc(Cl)cc3)nc(S)n2)Sc2ccccc2N1 | > 100 µM (inactive) | – | > 100 µM (inactive) | > 100 | > 100 µM (inactive) | > 100 µM (inactive) | > 100 µM (inactive) | > 100 µM (inactive) | > 100 µM (inactive) | > 100 µM (inactive) | > 100 µM (inactive) | > 100 µM (inactive) | > 100 µM (inactive) | – | > 100 µM (inactive) | > 100 µM (inactive) | > 100 µM (inactive) | > 100 µM (inactive) | > 100 µM (inactive) |
| CCOC(=O)c1ccc(NC(=O)SCCC(=O)O)cc1 | – | 23 µM (inactive) | 35.4 µM (inactive) | > 100 | > 100 µM (inactive) | 56.4 µM (inactive) | > 100 µM (inactive) | – | > 100 µM (inactive) | – | > 100 µM (inactive) | > 100 µM (inactive) | > 100 µM (inactive) | > 100 µM (inactive) | > 100 µM (inactive) | 52.5 µM (inactive) | > 100 µM (inactive) | > 100 µM (inactive) | 64.3 µM (inactive) |
| CC(C)(C)NC(=O)C12C3C4C1C1C2C3C41I (stereo unspecified) | – | > 100 µM (inactive) | – | > 100 | – | > 100 µM (inactive) | > 100 µM (inactive) | > 100 µM (inactive) | > 100 µM (inactive) | > 100 µM (inactive) | > 100 µM (inactive) | – | > 100 µM (inactive) | > 100 µM (inactive) | > 100 µM (inactive) | > 100 µM (inactive) | > 100 µM (inactive) | > 100 µM (inactive) | > 100 µM (inactive) |
| COc1ccc([C@@H]2C[C@@H]3C(=O)OC(=O)[C@@H]3c3c2c2ccccc2n3C)cc1 | > 100 µM (inactive) | > 100 µM (inactive) | > 100 µM (inactive) | – | > 100 µM (inactive) | > 100 µM (inactive) | – | > 100 µM (inactive) | > 100 µM (inactive) | > 100 µM (inactive) | > 100 µM (inactive) | > 100 µM (inactive) | > 100 µM (inactive) | > 100 µM (inactive) | > 100 µM (inactive) | > 100 µM (inactive) | > 100 µM (inactive) | > 100 µM (inactive) | – |
| CC[N+](CC)(CC)Cc1cn(S(=O)(=O)c2ccccc2)c2ccccc12 | – | > 100 µM (inactive) | > 100 µM (inactive) | > 100 | > 100 µM (inactive) | > 100 µM (inactive) | > 100 µM (inactive) | > 100 µM (inactive) | > 100 µM (inactive) | > 100 µM (inactive) | > 100 µM (inactive) | > 100 µM (inactive) | > 100 µM (inactive) | > 100 µM (inactive) | > 100 µM (inactive) | > 100 µM (inactive) | > 100 µM (inactive) | > 100 µM (inactive) | – |
| CC1=NN(c2ccccc2)C(=O)C1/N=N/c1ccc(Br)c(C)c1 (stereo unspecified) | > 100 µM (inactive) | 71.3 µM (inactive) | > 100 µM (inactive) | > 100 | > 100 µM (inactive) | > 100 µM (inactive) | > 100 µM (inactive) | – | > 100 µM (inactive) | > 100 µM (inactive) | > 100 µM (inactive) | > 100 µM (inactive) | > 100 µM (inactive) | > 100 µM (inactive) | – | > 100 µM (inactive) | > 100 µM (inactive) | > 100 µM (inactive) | – |
| COC(=O)C(C(=O)OC)C1CCCC(=O)C1 (stereo unspecified) | > 100 µM (inactive) | > 100 µM (inactive) | > 100 µM (inactive) | > 100 | > 100 µM (inactive) | > 100 µM (inactive) | > 100 µM (inactive) | – | > 100 µM (inactive) | – | > 100 µM (inactive) | > 100 µM (inactive) | > 100 µM (inactive) | > 100 µM (inactive) | > 100 µM (inactive) | > 100 µM (inactive) | > 100 µM (inactive) | > 100 µM (inactive) | > 100 µM (inactive) |
| O=C1C(=O)N(c2ccc(Cl)cc2Cl)C(=O)C(=O)C1c1nc2ccccc2o1 | > 100 µM (inactive) | > 100 µM (inactive) | > 100 µM (inactive) | > 100 | > 100 µM (inactive) | > 100 µM (inactive) | > 100 µM (inactive) | > 100 µM (inactive) | > 100 µM (inactive) | > 100 µM (inactive) | > 100 µM (inactive) | > 100 µM (inactive) | > 100 µM (inactive) | > 100 µM (inactive) | > 100 µM (inactive) | > 100 µM (inactive) | > 100 µM (inactive) | > 100 µM (inactive) | – |
| Cc1cc([N+](=O)[O-])c(C)c2c1[nH]c1ccc(Cl)cc12 | – | 23.6 µM (inactive) | – | 96.2 | > 100 µM (inactive) | > 100 µM (inactive) | – | 18.8 µM (inactive) | 84.7 µM (inactive) | > 100 µM (inactive) | > 100 µM (inactive) | > 100 µM (inactive) | > 100 µM (inactive) | 50 µM (inactive) | > 100 µM (inactive) | 89.5 µM (inactive) | > 100 µM (inactive) | 58.7 µM (inactive) | > 100 µM (inactive) |
| CCN(CC)CCCNC(=O)Cc1ccccc1Nc1c(Cl)cccc1Cl | 15.3 µM (inactive) | 11.4 µM (inactive) | 18.4 µM (inactive) | 14.9 | 2.82 µM (inactive) | 16.2 µM (inactive) | 13 µM (inactive) | – | 13.7 µM (inactive) | – | 17.9 µM (inactive) | 16 µM (inactive) | 14 µM (inactive) | 12.4 µM (inactive) | 11.2 µM (inactive) | 4.48 µM (inactive) | 14.2 µM (inactive) | 11.8 µM (inactive) | 12.3 µM (inactive) |
| CCOC(=O)c1cnc2c(ccc3ncccc32)c1OCC | > 100 µM (inactive) | 71.8 µM (inactive) | > 100 µM (inactive) | > 100 | > 100 µM (inactive) | > 100 µM (inactive) | > 100 µM (inactive) | > 100 µM (inactive) | 60.5 µM (inactive) | – | > 100 µM (inactive) | > 100 µM (inactive) | > 100 µM (inactive) | – | > 100 µM (inactive) | > 100 µM (inactive) | > 100 µM (inactive) | > 100 µM (inactive) | > 100 µM (inactive) |
